Drawing on patent US20160002204A1 (Board of Regents, The University of Texas System, priority 2014, published 2016), this text covers IC50 and EC50 for 20 molecules.

The structures appear in SMILES notation.

In experiment [1] the target is T1, GLS1 (purified recombinant human GAC) (Homo sapiens, UniProt O94925).
T1 sequence (O94925 55-598 isoform O94925-3 limits assumed): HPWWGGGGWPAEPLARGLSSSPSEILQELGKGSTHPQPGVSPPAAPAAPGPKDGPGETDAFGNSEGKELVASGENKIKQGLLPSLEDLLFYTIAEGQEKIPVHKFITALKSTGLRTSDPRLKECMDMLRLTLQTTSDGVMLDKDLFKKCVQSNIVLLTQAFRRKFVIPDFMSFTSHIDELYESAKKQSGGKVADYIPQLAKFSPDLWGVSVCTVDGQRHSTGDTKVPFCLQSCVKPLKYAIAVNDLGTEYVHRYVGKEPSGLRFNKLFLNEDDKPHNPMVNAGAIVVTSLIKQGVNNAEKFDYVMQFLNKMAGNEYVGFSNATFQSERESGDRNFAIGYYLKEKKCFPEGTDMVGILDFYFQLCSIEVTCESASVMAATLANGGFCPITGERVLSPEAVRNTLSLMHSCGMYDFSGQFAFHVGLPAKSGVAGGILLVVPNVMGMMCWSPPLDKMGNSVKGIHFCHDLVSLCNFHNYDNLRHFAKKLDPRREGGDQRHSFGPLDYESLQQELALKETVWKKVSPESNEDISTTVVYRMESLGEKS
Kind of experiment: GLS1 enzymatic activity assay (dual-coupled, Amplex UltraRed/resorufin). Format: biochemical. In outline: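 Recombinant human GAC (2 nM) preincubated with 50 mM potassium phosphate, then inhibitor (10 min each, RT); 1 mM glutamine, pH 7.4 Hepes buffer, 1% DMSO. Glutamate coupled via glutamate oxidase/HRP to resorufin (Ex 530/Em 590), kinetic or 20-min endpoint; IC50 by four-parameter logistic fit.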

In another experiment the test system is A549 cells. In words: A549 proliferation (viability) assay, Cell Titer Fluor, 72 hours. Format: cell-based. The note with it: Homo sapiens. Summed up: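 Compound was added to A549 cells (1000/well, pre-grown 24 h in RPMI 1640 plus 10% dialyzed FBS) at 0.5% DMSO and left 72 h under 37 °C, 5% CO2, ambient O2. Live-cell fluorescence (Cell Titer Fluor) gave the EC50.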

Take `O=C(Cc1ccccc1)Nc1ccn(CCCCc2nnc(NC(=O)Cc3cccnc3)s2)c(=O)n1` [Example 16, N-(2-oxo-1-(4-(5-(2-(pyridin-3-yl)acetamido)-1,3,4-thiadiazol-2-yl)butyl)-1,2-dihydropyrimidin-4-yl)-2-phenylacetamide]: the IC50 (commonly the concentration at which inhibition is half-maximal) in experiment [1] was less than 100 nM. The EC50 (as a rule, the concentration needed to bring the measured effect to its halfway point) in the experiment with A549 cells was 500 to 5000 nM.

Consider `O=C(Cc1ccccc1)Nc1ccn(CC[C@H](F)Cn2cc(C(=O)NCc3cc(C(F)(F)F)ccn3)nn2)c(=O)c1F` [Example 125, (S)-1-(2-fluoro-4-(3-fluoro-2-oxo-4-(2-phenylacetamido)pyridin-1(2H)-yl)butyl)-N-((4-(trifluoromethyl)pyridin-2-yl)methyl)-1H-1,2,3-triazole-4-carboxamide], for which, in experiment [1], the IC50 was less than 100 nM. This molecule came in with an EC50 in the experiment on A549 cells of less than 100 nM.

Take `O=C(CC1CCS(=O)(=O)CC1)Nc1ccn(CCCCn2cc(C(=O)NCc3cccc(OC(F)(F)F)c3)nn2)c(=O)c1` [Example 179, 1-(4-{4-[2-(1,1-dioxo-1$l^6-thian-4-yl)acetamido]-2-oxo-1,2-dihydropyridin-1-yl}butyl)-N-{[3-(trifluoromethoxy)phenyl]methyl}-1H-1,2,3-triazole-4-carboxamide]: in experiment [1], the 50% inhibitory concentration (IC50) is less than 100 nM. Also, in the experiment with A549 cells, the EC50 was 500 to 5000 nM.

As to `Nc1ccn(CCC(F)Cn2cc(C(=O)NCc3cccc(OC(F)(F)F)c3)nn2)c(=O)n1` (stereo not shown) [Example 382, 1-[4-(4-amino-2-oxo-1,2-dihydropyrimidin-1-yl)-2-fluorobutyl]-N-{[3-(trifluoromethoxy)phenyl]methyl}-1H-1,2,3-triazole-4-carboxamide], in experiment [1], the IC50 fell in the range of 500 to 5000 nM. The EC50 with A549 cells was greater than 5000 nM.

For the molecule `CO[C@@H](C(=O)Nc1ccn(CC(F)CCn2cc(C(=O)NCc3cccc(OC(F)(F)F)c3)nn2)c(=O)c1F)c1ccccc1` (stereo partly drawn) [Example 310, 1-(3-fluoro-4-{3-fluoro-4-[(2R)-2-methoxy-2-phenylacetamido]-2-oxo-1,2-dihydropyridin-1-yl}butyl)-N-{[3-(trifluoromethoxy)phenyl]methyl}-1H-1,2,3-triazole-4-carboxamide], in experiment [1], the half-maximal inhibitory concentration (IC50) was 500 to 5000 nM. In addition, the EC50 in the experiment with A549 cells lay in the range of 500 to 5000 nM.

As for `O=C(CC1CCCOC1)Nc1ccn(CCCCn2cc(C(=O)NCc3cccc(OC(F)(F)F)c3)nn2)c(=O)c1` (stereo not shown) [Example 56, 1-(4-{4-[2-(oxan-3-yl)acetamido]-2-oxo-1,2-dihydropyridin-1-yl}butyl)-N-{[3-(trifluoromethoxy)phenyl]methyl}-1H-1,2,3-triazole-4-carboxamide], in experiment [1], the IC50 was less than 100 nM. Moreover, the EC50 in the experiment with A549 cells was 500 to 5000 nM.

With `O=C(CC1CCCCC1)Nc1ccn(CCC(F)Cn2cc(C(=O)NCc3cc(Cl)ccc3F)nn2)c(=O)c1F` (stereo not shown) [Example 265, N-[(5-chloro-2-fluorophenyl)methyl]-1-{4-[4-(2-cyclohexylacetamido)-3-fluoro-2-oxo-1,2-dihydropyridin-1-yl]-2-fluorobutyl}-1H-1,2,3-triazole-4-carboxamide], in experiment [1], the half-inhibitory concentration (IC50) was less than 100 nM. Besides, the concentration for a half-maximal effect (EC50) in the experiment with A549 cells was less than 100 nM.

As to `CC(C)COC(=O)Nc1ccn(CCCCc2ccc(NC(=O)Cc3ccccc3)nn2)c(=O)n1` [Example 98, 2-methylpropyl N-(2-oxo-1-{4-[6-(2-phenylacetamido)pyridazin-3-yl]butyl}-1,2-dihydropyrimidin-4-yl)carbamate], the IC50 in experiment [1] was less than 100 nM. Moreover, the EC50 in the experiment on A549 cells is 100 to 500 nM.

Regarding `CCOC(=O)N1CCN(CC(=O)Nc2ccn(CCC(F)Cn3cc(C(=O)NCc4cccc(OC(F)(F)F)c4)nn3)c(=O)c2F)CC1` (stereo not shown) [Example 292, ethyl 4-{[(3-fluoro-1-{3-fluoro-4-[4-({[3-(trifluoro-methoxy)phenyl]methyl}carbamoyl)-1H-1,2,3-triazol-1-yl]butyl}-2-oxo-1,2-dihydropyridin-4-yl)carbamoyl]methyl}piperazine-1-carboxylate], the IC50 in experiment [1] was less than 100 nM. In the experiment with A549 cells, this molecule came in with an EC50 of less than 100 nM.

On to `CS(=O)(=O)CCC(=O)Nc1ccn(CCCCc2ccc(NC(=O)Cc3cccc(OC(F)(F)F)c3)nn2)c(=O)n1` [Example 110, 3-methanesulfonyl-N-{2-oxo-1-[4-(6-{2-[3-(trifluoro-methoxy)phenyl]acetamido}pyridazin-3-yl)butyl]-1,2-dihydropyrimidin-4-yl}propanamide], for which, in experiment [1], the IC50 is less than 100 nM. In addition, the EC50 in the experiment on A549 cells was in the range of 100 to 500 nM.

`O=C(Nc1ccn(CCC(F)Cn2cc(C(=O)NCc3cccc(C(F)(F)F)n3)nn2)c(=O)c1F)OC1CCC1` (stereo not shown) [Example 397, cyclobutyl N-(3-fluoro-1-{3-fluoro-4-[4-({[6-(trifluoromethyl)pyridin-2-yl]methyl}carbamoyl)-1H-1,2,3-triazol-1-yl]butyl}-2-oxo-1,2-dihydropyridin-4-yl)carbamate]: the IC50 in experiment [1] fell in the range of 100 to 500 nM. The molecule also showed an EC50 with A549 cells of 100 to 500 nM.

As to `O=C(CN1CCC(F)(F)CC1)Nc1ccn(CCC(F)Cn2cc(C(=O)NCc3cc(C(F)(F)F)ccn3)nn2)c(=O)c1F` (stereo not shown) [Example 416, 1-(4-{4-[2-(4,4-difluoropiperidin-1-yl)acetamido]-3-fluoro-2-oxo-1,2-dihydropyridin-1-yl}-2-fluorobutyl)-N-{[4-(trifluoromethyl)pyridin-2-yl]methyl}-1H-1,2,3-triazole-4-carboxamide], the IC50 in experiment [1] is less than 100 nM. Besides, in the experiment with A549 cells, the EC50 is less than 100 nM.

Regarding `O=C(NCc1cccc(OC(F)(F)F)c1)c1cn(CC(F)CCn2ccc(COc3cccc(F)c3)cc2=O)nn1` (stereo not shown) [Example 472, 1-{2-fluoro-4-[4-(3-fluorophenoxymethyl)-2-oxo-1,2-dihydropyridin-1-yl]butyl}-N-{[3-(trifluoromethoxy)phenyl]methyl}-1H-1,2,3-triazole-4-carboxamide], in experiment [1], the IC50 is less than 100 nM. In the experiment with A549 cells, this molecule yielded an EC50 of 100 to 500 nM.

For `C[C@H](C(=O)Nc1ccn(CCC(F)Cn2cc(C(=O)NCc3ccc(C(F)(F)F)nc3)nn2)c(=O)c1F)c1ccccc1` (stereo partly drawn) [Example 368, 1-(2-fluoro-4-{3-fluoro-2-oxo-4-[(2S)-2-phenylpropanamido]-1,2-dihydropyridin-1-yl}butyl)-N-{[6-(trifluoromethyl)pyridin-3-yl]methyl}-1H-1,2,3-triazole-4-carboxamide], the IC50 in experiment [1] was less than 100 nM. Moreover, the EC50 with A549 cells is less than 100 nM.

As for `CC(C(=O)Nc1ccn(CCC(F)Cn2cc(C(=O)NCc3cncc(C(F)(F)F)c3)nn2)c(=O)c1F)N1CCCCC1` (stereo not shown) [Example 352, 1-(2-fluoro-4-{3-fluoro-2-oxo-4-[2-(piperidin-1-yl)propanamido]-1,2-dihydropyridin-1-yl}butyl)-N-{[5-(trifluoromethyl)pyridin-3-yl]methyl}-1H-1,2,3-triazole-4-carboxamide], in experiment [1], the IC50 is less than 100 nM. Also, the EC50 with A549 cells is less than 100 nM.

Take `CC(C)COC(=O)Nc1ccn(CCCCn2cc(C(=O)NCc3cccc(OC(F)(F)F)c3)nn2)c(=O)c1` [Example 7, Isobutyl(2-oxo-1-(4-(4-((3-(trifluoromethoxy)benzyl)carbamoyl)-1H-1,2,3-triazol-1-yl)butyl)-1,2-dihydropyridin-4-yl)carbamate]: the IC50 in experiment [1] is less than 100 nM. In the experiment on A549 cells, this molecule had an EC50 of 100 to 500 nM.

For `O=C(Nc1ccn(CCC(F)Cn2cc(C(=O)NCc3cccc(OC(F)(F)F)c3)nn2)c(=O)c1F)C(=O)N1CCCC(C(F)(F)F)C1` (stereo not shown) [Example 419, 1-[2-fluoro-4-(3-fluoro-2-oxo-4-{2-oxo-2-[3-(trifluoromethyl)piperidin-1-yl]acetamido}-1,2-dihydropyridin-1-yl)butyl]-N-{[3-(trifluoromethoxy)phenyl]methyl}-1H-1,2,3-triazole-4-carboxamide], in experiment [1], the IC50 is less than 100 nM. In the experiment with A549 cells, this molecule displayed an EC50 of less than 100 nM.

In the case of `O=C(Cc1cccs1)Nc1ccn(CCCCn2cc(C(=O)NCc3cccc(OC(F)(F)F)c3)nn2)c(=O)c1` [Example 202, 1-(4-{2-oxo-4-[2-(thiophen-2-yl)acetamido]-1,2-dihydropyridin-1-yl}butyl)-N-{[3-(trifluoromethoxy)phenyl]methyl}-1H-1,2,3-triazole-4-carboxamide], in experiment [1], the concentration for half-maximal inhibition (IC50) is less than 100 nM. For the same molecule, the EC50 in the experiment on A549 cells is 100 to 500 nM.

Turning to `O=C(CN1CCC(F)(F)CC1)Nc1ccn(CCC(F)Cn2cc(C(=O)NCc3cccc(OC(F)(F)F)c3)nn2)c(=O)c1F` (stereo not shown) [Example 290, 1-(4-{4-[2-(4,4-difluoropiperidin-1-yl)acetamido]-3-fluoro-2-oxo-1,2-dihydropyridin-1-yl}-2-fluorobutyl)-N-{[3-(trifluoromethoxy)phenyl]methyl}-1H-1,2,3-triazole-4-carboxamide], in experiment [1], the IC50 is less than 100 nM. In the experiment on A549 cells, this molecule yielded an EC50 of less than 100 nM.

On to `O=C(CC1CCC1)Nc1ccn(CCC(F)Cn2cc(C(=O)NCc3cc(Cl)ccc3F)nn2)c(=O)c1` (stereo not shown) [Example 214, N-[(5-chloro-2-fluorophenyl)methyl]-1-{4-[4-(2-cyclobutylacetamido)-2-oxo-1,2-dihydropyridin-1-yl]-2-fluorobutyl}-1H-1,2,3-triazole-4-carboxamide], for which the IC50 in experiment [1] was less than 100 nM. The same molecule returned an EC50 in the experiment on A549 cells of 100 to 500 nM.
